Target: T1, MDM2 (Homo sapiens, UniProt Q00987)
T1 construct: GST-MDM2
Test: fluorescence polarization competitive binding assay (PMDM6-F tracer); also cellular thermal shift assay in MCF-7 and MDA-MB-231 cells

T1 sequence (Q00987 whole entry): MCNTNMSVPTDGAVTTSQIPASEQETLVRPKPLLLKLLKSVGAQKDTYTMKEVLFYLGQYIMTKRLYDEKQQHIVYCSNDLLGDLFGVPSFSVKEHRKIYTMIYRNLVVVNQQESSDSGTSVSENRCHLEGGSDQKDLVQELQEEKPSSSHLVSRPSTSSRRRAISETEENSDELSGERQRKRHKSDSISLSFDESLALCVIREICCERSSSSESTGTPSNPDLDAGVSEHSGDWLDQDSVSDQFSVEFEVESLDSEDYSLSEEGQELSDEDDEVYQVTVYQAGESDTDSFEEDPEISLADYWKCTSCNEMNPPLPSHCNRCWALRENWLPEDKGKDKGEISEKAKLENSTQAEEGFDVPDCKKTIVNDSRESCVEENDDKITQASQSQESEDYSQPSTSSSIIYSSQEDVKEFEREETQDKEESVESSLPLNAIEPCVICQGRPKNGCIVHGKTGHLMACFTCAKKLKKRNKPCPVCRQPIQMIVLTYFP

Ki: 270 nM
Substance: JapA
